In US8148391B2 (Cephalon, Inc., priority 2006, dated 2012):

What was measured:
[1] = biological target: T1, baculovirus-expressed ALK (Homo sapiens, UniProt Q9UM73); test: ALK Kinase Assay (ELISA-type, time-resolved fluorescence); type: biochemical; settings: 1 μM ATP (Km level), 30 ng/ml ALK, 37° C., 15 minutes; read-out: ALK Activity (ALK kinase inhibition, IC50 class)
T1 construct: host or cells: baculovirus expression system
Procedure, shortened: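 Plates coated with phospholipase C-γ substrate (10 μg/mL in TBS); reaction started with 30 ng/ml ALK and run 15 min at 37° C. Phosphorylated substrate detected with Eu-N1-labeled PT66 antibody. IC50 from sigmoidal variable-slope fit of percent inhibition vs log concentration.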

[2] = biological target: T2, c-Met (cytoplasmic domain) (Homo sapiens, UniProt P08581); test: c-Met Kinase Assay (same methods as for ALK, with modifications); type: biochemical; settings: 1 μM ATP (Km level), 10 ng/mL c-Met; read-out: cMet Activity (c-Met kinase inhibition, IC50 class)
T2 construct: 10 ng/mL c-Met (cytoplasmic domain, Invitrogen Corporation #PV3143); purchased Invitrogen Corporation PV3143
Procedure, shortened: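 Europium-labeled PT66 antibody (Eu-N1) detects substrate phosphorylation on wells coated with phospholipase C-γ at 10 μg/mL. The kinase, the cytoplasmic domain of c-Met at 10 ng/mL, starts the reaction, which proceeds 15 minutes at 37° C.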

T1 sequence (Q9UM73 19-1620): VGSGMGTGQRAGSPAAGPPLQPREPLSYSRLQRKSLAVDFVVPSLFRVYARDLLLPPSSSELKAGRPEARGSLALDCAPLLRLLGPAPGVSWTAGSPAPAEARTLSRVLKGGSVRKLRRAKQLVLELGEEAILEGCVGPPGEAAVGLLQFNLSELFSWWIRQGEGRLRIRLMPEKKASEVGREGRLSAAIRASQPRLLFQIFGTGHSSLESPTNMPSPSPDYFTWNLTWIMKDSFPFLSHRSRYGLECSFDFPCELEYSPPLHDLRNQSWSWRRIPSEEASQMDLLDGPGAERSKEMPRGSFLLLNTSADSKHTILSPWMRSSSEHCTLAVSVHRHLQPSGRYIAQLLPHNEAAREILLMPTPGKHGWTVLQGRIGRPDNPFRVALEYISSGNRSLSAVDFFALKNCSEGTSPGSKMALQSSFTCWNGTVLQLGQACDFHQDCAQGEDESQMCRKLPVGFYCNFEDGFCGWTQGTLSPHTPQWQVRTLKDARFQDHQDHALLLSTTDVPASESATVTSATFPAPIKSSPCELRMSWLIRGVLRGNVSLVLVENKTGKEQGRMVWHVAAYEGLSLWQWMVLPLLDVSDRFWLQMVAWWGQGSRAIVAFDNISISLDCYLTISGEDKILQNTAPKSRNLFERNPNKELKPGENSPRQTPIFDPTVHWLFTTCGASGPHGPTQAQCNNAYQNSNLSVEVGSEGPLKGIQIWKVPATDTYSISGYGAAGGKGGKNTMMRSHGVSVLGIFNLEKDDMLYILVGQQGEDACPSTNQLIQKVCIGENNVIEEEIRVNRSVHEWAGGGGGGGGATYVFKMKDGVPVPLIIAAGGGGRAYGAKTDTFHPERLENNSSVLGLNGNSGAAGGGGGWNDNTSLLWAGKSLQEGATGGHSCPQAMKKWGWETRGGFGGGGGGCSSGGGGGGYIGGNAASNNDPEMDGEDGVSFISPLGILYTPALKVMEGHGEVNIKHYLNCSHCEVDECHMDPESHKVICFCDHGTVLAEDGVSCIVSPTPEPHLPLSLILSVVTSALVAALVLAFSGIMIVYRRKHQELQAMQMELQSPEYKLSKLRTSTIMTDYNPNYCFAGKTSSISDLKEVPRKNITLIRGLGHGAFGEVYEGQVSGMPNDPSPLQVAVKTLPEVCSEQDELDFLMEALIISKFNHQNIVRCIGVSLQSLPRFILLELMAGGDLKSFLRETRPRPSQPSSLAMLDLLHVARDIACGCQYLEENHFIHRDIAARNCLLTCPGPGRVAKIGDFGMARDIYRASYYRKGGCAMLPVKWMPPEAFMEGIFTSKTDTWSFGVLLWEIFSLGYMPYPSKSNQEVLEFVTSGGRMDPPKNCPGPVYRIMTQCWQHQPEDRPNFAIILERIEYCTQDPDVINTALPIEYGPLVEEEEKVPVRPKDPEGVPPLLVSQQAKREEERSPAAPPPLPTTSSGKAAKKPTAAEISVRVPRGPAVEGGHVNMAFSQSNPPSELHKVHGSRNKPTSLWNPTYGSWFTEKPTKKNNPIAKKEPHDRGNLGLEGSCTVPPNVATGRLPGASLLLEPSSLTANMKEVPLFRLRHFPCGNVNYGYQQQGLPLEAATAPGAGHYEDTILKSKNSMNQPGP
T2 sequence (P08581 956-1390 limits assumed): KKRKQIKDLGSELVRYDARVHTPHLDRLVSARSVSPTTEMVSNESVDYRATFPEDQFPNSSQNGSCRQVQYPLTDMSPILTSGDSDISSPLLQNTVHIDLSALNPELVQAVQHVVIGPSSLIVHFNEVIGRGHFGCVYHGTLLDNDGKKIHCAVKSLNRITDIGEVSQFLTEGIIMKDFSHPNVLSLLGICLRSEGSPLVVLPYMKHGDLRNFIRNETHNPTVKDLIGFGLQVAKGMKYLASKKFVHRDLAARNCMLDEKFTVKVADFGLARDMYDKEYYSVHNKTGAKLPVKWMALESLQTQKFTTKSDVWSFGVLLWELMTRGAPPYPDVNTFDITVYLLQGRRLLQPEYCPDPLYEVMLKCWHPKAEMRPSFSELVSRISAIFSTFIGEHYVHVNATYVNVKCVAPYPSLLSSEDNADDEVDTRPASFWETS

Structure (SMILES) | IC50 [1] [nM] | IC50 [2] [nM]
COc1cccc(C(=O)NCCC#N)c1Nc1nc(Nc2ccc3c(c2)C(C)(C)CCC(=O)N3)ncc1Cl [Example 1061, 2-[5-Chloro-2-(5,5-dimethyl-2-oxo-2,3,4,5-tetrahydro-1H-benzo[b]azepin-7-ylamino)-pyrimidin-4-ylamino]-N-(2-cyano-ethyl)-3-methoxy-benzamide] | > 10000 | 1000 to 10000
COc1cccc(C(=O)NCCC#N)c1Nc1nc(Nc2ccc3c(c2)CCCC(=O)N3C)ncc1Cl [Example 1062, 2-[5-Chloro-2-(1-methyl-2-oxo-2,3,4,5-tetrahydro-1H-benzo[b]azepin-7-ylamino)-pyrimidin-4-ylamino]-N-(2-cyano-ethyl)-3-methoxy-benzamide] | > 10000 | 1000 to 10000
COCCN1CCc2ccc(Nc3ncc(Cl)c(Nc4c(OC)cccc4C(=O)NCC#N)n3)cc2CC1 [Example 1063, 2-{5-Chloro-2-[3-(2-methoxy-ethyl)-2,3,4,5-tetrahydro-1H-benzo[d]azepin-7-ylamino]-pyrimidin-4-ylamino}-N-cyanomethyl-3-methoxy-benzamide] | 1000 to 10000 | 100 to 1000
COc1cccc(C(=O)NCC#N)c1Nc1nc(Nc2ccc3c(c2)C(C)(C)CCC(=O)N3)ncc1Cl [Example 1064, 2-[5-Chloro-2-(5,5-dimethyl-2-oxo-2,3,4,5-tetrahydro-1H-benzo[b]azepin-7-ylamino)-pyrimidin-4-ylamino]-N-cyanomethyl-3-methoxy-benzamide] | 1000 to 10000 | 1000 to 10000
COc1cccc(C(=O)NCC#N)c1Nc1nc(Nc2ccc3c(c2)CCCC(=O)N3C)ncc1Cl [Example 1065, 2-[5-Chloro-2-(1-methyl-2-oxo-2,3,4,5-tetrahydro-1H-benzo[b]azepin-7-ylamino)-pyrimidin-4-ylamino]-N-cyanomethyl-3-methoxy-benzamide] | > 10000 | 100 to 1000
COc1ccc2c(c1Nc1ncc(Cl)c(N[C@@H]3CCCC[C@H]3NS(C)(=O)=O)n1)CCC(N1CCOCC1)CC2 (stereo partly drawn) [Example 1070, N-{(1R,2R)-2-[5-Chloro-2-(2-methoxy-7-morpholin-4-yl-6,7,8,9-tetrahydro-5H-benzocyclohepten-1-ylamino)-pyrimidin-4-ylamino]-cyclohexyl}-methanesulfonamide] | 100 to 1000 | > 10000
COc1ccc2c(c1Nc1ncc(Cl)c(Nc3ccccc3-n3cccn3)n1)CCC(N1CCOCC1)CC2 (stereo not drawn) [Example 1071, 5-Chloro-N*2*-(2-methoxy-7-morpholin-4-yl-6,7,8,9-tetrahydro-5H-benzocyclohepten-1-yl)-N*4*-(2-pyrazol-1-yl-phenyl)-pyrimidine-2,4-diamine] | 100 to 1000 | > 10000
COc1ccc2c(c1Nc1ncc(Cl)c(Nc3ccccc3S(=O)(=O)N(C)C)n1)CCC(N1CCOCC1)CC2 (stereo not drawn) [Example 1072, 2-[5-Chloro-2-(2-methoxy-7-morpholin-4-yl-6,7,8,9-tetrahydro-5H-benzocyclohepten-1-ylamino)-pyrimidin-4-ylamino]-N,N-dimethyl-benzenesulfonamide] | 100 to 1000 | > 10000
CNC(=O)c1ccccc1Nc1nc(Nc2c(OC)ccc3c2CCC(N2CCOCC2)CC3)ncc1Cl (stereo not drawn) [Example 1073, 2-[5-Chloro-2-(2-methoxy-7-morpholin-4-yl-6,7,8,9-tetrahydro-5H-benzocyclohepten-1-ylamino)-pyrimidin-4-ylamino]-N-methyl-benzamide] | 100 to 1000 | > 10000
COc1ccc2c(c1Nc1ncc(Cl)c(Nc3ccccc3-n3cccn3)n1)CCC(NCC(F)F)CC2 (stereo not drawn) [Example 1076, 5-Chloro-N*2*-[7-(2,2-difluoro-ethylamino)-2-methoxy-6,7,8,9-tetrahydro-5H-benzocyclohepten-1-yl]-N*4*-(2-pyrazol-1-yl-phenyl)-pyrimidine-2,4-diamine] | 100 to 1000 | > 10000
COc1ccc2c(c1Nc1ncc(Cl)c(Nc3ccccc3S(=O)(=O)N(C)C)n1)CCC(NCC(F)F)CC2 (stereo not drawn) [Example 1077, 2-{5-Chloro-2-[7-(2,2-difluoro-ethylamino)-2-methoxy-6,7,8,9-tetrahydro-5H-benzocyclohepten-1-ylamino]-pyrimidin-4-ylamino}-N,N-dimethyl-benzenesulfonamide] | 100 to 1000 | > 10000
CNC(=O)c1ccccc1Nc1nc(Nc2c(OC)ccc3c2CCC(NCC(F)F)CC3)ncc1Cl (stereo not drawn) [Example 1078, 2-{5-Chloro-2-[7-(2,2-difluoro-ethylamino)-2-methoxy-6,7,8,9-tetrahydro-5H-benzocyclohepten-1-ylamino]-pyrimidin-4-ylamino}-N-methyl-benzamide] | 100 to 1000 | > 10000
COCCN1CCc2ccc(Nc3ncc(Cl)c(Nc4c(F)cccc4C(=O)NCC#N)n3)cc2CC1 [Example 1079, 2-{5-Chloro-2-[3-(2-methoxy-ethyl)-2,3,4,5-tetrahydro-1H-benzo[d]azepin-7-ylamino]-pyrimidin-4-ylamino}-N-cyanomethyl-3-fluoro-benzamide] | < 100 | < 100
CC1(C)CCC(=O)Nc2cc(Nc3ncc(Cl)c(Nc4c(F)cccc4C(=O)NCC#N)n3)ccc21 [Example 1080, 2-[5-Chloro-2-(5,5-dimethyl-2-oxo-2,3,4,5-tetrahydro-1H-benzo[b]azepin-8-ylamino)-pyrimidin-4-ylamino]-N-cyanomethyl-3-fluoro-benzamide] | < 100 | < 100
COCCNC1CCc2cc(Nc3ncc(Cl)c(Nc4ccccc4S(=O)(=O)N4CCCC4)n3)c(OC)cc2CC1 (stereo not drawn) [Example 1081, 5-Chloro-N*2*-[3-methoxy-7-(2-methoxy-ethylamino)-6,7,8,9-tetrahydro-5H-benzocyclohepten-2-yl]-N*4*-[2-(pyrrolidine-1-sulfonyl)-phenyl]-pyrimidine-2,4-diamine] | < 100 | 1000 to 10000
COCCNC1CCc2cc(Nc3ncc(Cl)c(Nc4ccccc4S(=O)(=O)N4CCC(O)C4)n3)c(OC)cc2CC1 (stereo not drawn) [Example 1082, 1-(2-{5-Chloro-2-[3-methoxy-7-(2-methoxy-ethylamino)-6,7,8,9-tetrahydro-5H-benzocyclohepten-2-ylamino]-pyrimidin-4-ylamino}-benzenesulfonyl)-pyrrolidin-3-ol] | < 100 | 1000 to 10000
COCCNC1CCc2cc(Nc3ncc(Cl)c(Nc4ccccc4S(=O)(=O)N(C)C)n3)c(OC)cc2CC1 (stereo not drawn) [Example 1083, 2-{5-Chloro-2-[3-methoxy-7-(2-methoxy-ethylamino)-6,7,8,9-tetrahydro-5H-benzocyclohepten-2-ylamino]-pyrimidin-4-ylamino}-N,N-dimethyl-benzenesulfonamide] | < 100 | 1000 to 10000
COCCNC1CCc2cc(Nc3ncc(Cl)c(Nc4ccccc4S(=O)(=O)C(C)C)n3)c(OC)cc2CC1 (stereo not drawn) [Example 1084, 5-Chloro-N*2*-[3-methoxy-7-(2-methoxy-ethylamino)-6,7,8,9-tetrahydro-5H-benzocyclohepten-2-yl]-N*4*-[2-(propane-2-sulfonyl)-phenyl]-pyrimidine-2,4-diamine] | < 100 | 1000 to 10000
COCCNC1CCc2cc(Nc3ncc(Cl)c(Nc4ccccc4-n4cccn4)n3)c(OC)cc2CC1 (stereo not drawn) [Example 1085, 5-Chloro-N*2*-[3-methoxy-7-(2-methoxy-ethylamino)-6,7,8,9-tetrahydro-5H-benzocyclohepten-2-yl]-N*4*-(2-pyrazol-1-yl-phenyl)-pyrimidine-2,4-diamine] | < 100 | > 10000
CNC(=O)c1ccccc1Nc1nc(Nc2cc3c(cc2OC)CCC(NCCOC)CC3)ncc1Cl (stereo not drawn) [Example 1086, 2-{5-Chloro-2-[3-methoxy-7-(2-methoxy-ethylamino)-6,7,8,9-tetrahydro-5H-benzocyclohepten-2-ylamino]-pyrimidin-4-ylamino}-N-methyl-benzamide] | < 100 | 100 to 1000
COc1cc2c(cc1Nc1ncc(Cl)c(Nc3ccccc3S(=O)(=O)N3CCCC3)n1)CCC(NCCO)CC2 (stereo not drawn) [Example 1087, 2-(2-{5-Chloro-4-[2-(pyrrolidine-1-sulfonyl)-phenylamino]-pyrimidin-2-ylamino}-3-methoxy-6,7,8,9-tetrahydro-5H-benzocyclohepten-7-ylamino)-ethanol] | < 100 | 1000 to 10000
COc1cc2c(cc1Nc1ncc(Cl)c(Nc3ccccc3S(=O)(=O)N3CCC(O)C3)n1)CCC(NCCO)CC2 (stereo not drawn) [Example 1088, 1-(2-{5-Chloro-2-[7-(2-hydroxy-ethylamino)-3-methoxy-6,7,8,9-tetrahydro-5H-benzocyclohepten-2-ylamino]-pyrimidin-4-ylamino}-benzenesulfonyl)-pyrrolidin-3-ol] | < 100 | 1000 to 10000
COc1cc2c(cc1Nc1ncc(Cl)c(Nc3ccccc3S(=O)(=O)N(C)C)n1)CCC(NCCO)CC2 (stereo not drawn) [Example 1089, 2-{5-Chloro-2-[7-(2-hydroxy-ethylamino)-3-methoxy-6,7,8,9-tetrahydro-5H-benzocyclohepten-2-ylamino]-pyrimidin-4-ylamino}-N,N-dimethyl-benzenesulfonamide] | < 100 | 1000 to 10000
COc1cc2c(cc1Nc1ncc(Cl)c(Nc3ccccc3S(=O)(=O)C(C)C)n1)CCC(NCCO)CC2 (stereo not drawn) [Example 1090, 2-(2-{5-Chloro-4-[2-(propane-2-sulfonyl)-phenylamino]-pyrimidin-2-ylamino}-3-methoxy-6,7,8,9-tetrahydro-5H-benzocyclohepten-7-ylamino)-ethanol] | < 100 | 1000 to 10000
